US20220281918A1, “PBP BINDING BICYCLIC PEPTIDE LIGANDS” (BicycleTx Limited, priority 2019, published 2022)
≈ marks a conversion by molar mass, not a printed value. Numbered stars: 1 amine (or outer) side, 2 acyl side, 3 side chain; on linkers, the order of the positions; unused ones are H or OH. Bridge positions count the residues as written; N and C are the ends. Square brackets hold non-standard residues; d marks the D form. Ends that are not written are not given here. TATA = O=C(CC[*:1])N1CN(C(=O)CC[*:2])CN(C(=O)CC[*:3])C1; fluorescein = label appended via Sar6-Lys linker; Sar = CNCC(=O)O

Experiments:
PBP3 of E. coli [1] = molecular target: T1, PBP3 of E. coli (Escherichia coli, UniProt P0AD68); experiment: Fluorescence polarisation direct binding assay, PBP 3; conditions: PBP Tested 3 (E. coli); fluorescent ligand
Method: Fluorescence polarisation was carried out using fluorescein-labelled peptides with unmodified PBP protein and measured using a PHERAstar FS by BMG Labtech fitted with a FP 485 520 520 optic module.
Fluorescent peptides at 10 mM in DMSO were diluted to 2.5 nM in binding buffer (10 mM HEPES, pH8, 300 mM NaCl, 2% glycerol). A two-fold dilution series of PBP protein was then prepared across 12 wells in binding buffer, with the highest concentration being 21 μM, and the lowest concentration being 17 nM.
10 μl diluted fluorescent peptide (2.5 nM) was added into 12 wells of a 384-Well NBS™ Low Volume Microplate (Fisher Scientific). 10 μl PBP dilution series was then added to the wells containing the fluorescent peptide, and 5 μl binding buffer was added to bring the total volume to 25 μl and the final concentration of peptide tracer to 1 nM. A control well lacking PBP protein was prepared with a final peptide concentration of 1 nM to a final volume of 25 μl in binding buffer. Fluorescence polarisation was measured every 5 minutes for a period of one hour at room temperature. The gain and focal height were optimised using the control well lacking protein. […]
Data were analysed in GraphPad software to derive values for the dissociation constant. […]
Of note, the direct binding values presented herein utilise a peptide ligand bound to a fluorescence tracer molecule.

E. coli (ATCC 25922) = experiment: MIC assay (10 μl), E. coli ATCC 25922; format: cell-based; conditions: Escherichia coli, ATCC25922
Method: (§1) Test compounds were dissolved at high concentration in the required solvent. Where DMSO was used to dissolve test compounds, a DMSO control with equivalent concentrations of DMSO was included for each test organism. For each test organism, a control antibiotic (for which susceptibility of the test organism was known) was tested in parallel. This allowed comparison of results between runs and validated the testing procedure and organism.
(§2) Using aseptic technique, serial 2-fold dilutions (across a 10 point range) of the test compounds were made in 5 μl of cation-adjusted Muller Hinton broth (CA-MHB), on the inverted lid of a 96-well plate. Inoculum for each test organism was made in phosphate-buffered saline (PBS) to match the turbidity of a 0.5 McFarland standard, and then diluted 100-fold. Each well (except negative control well) was inoculated with 5 μl of inoculum. For each test antibiotic, a negative control (no bacteria) was included, consisting of CA-MHB only; along with a positive control (no antibiotic) with CA-MHB and bacteria only. The base of the 96 well plate was used as a lid, and the plate was incubated inside a humidor to reduce evaporation. […] MIC was evaluated based on turbidity, using white light shone through the base of the plate to illuminate droplets.

[2] = test system: S. typhimurium (ATCC 19585); experiment: MIC assay (10 μl), S. typhimurium; format: cell-based; conditions: Salmonella enterica
Method: as §1, §2

E. Coli GKCW101 (WT) = experiment: MIC assay, E. coli GKCW101; format: cell-based; conditions: Escherichia coli
Method: (§3) Minimum inhibitory concentration (MIC) assays were carried out using E. coli strains from the Zgurskaya lab engineered to harbour an inducible pore to make the outer membrane permeable (Krishnamoorthy et al. (2016) doi: https://doi.org/10.1128/AAC.01882-16). Strains used: GKCW101; GKCW102; GKCW103; and GKCW104.
(§4) Overnight cultures of bacteria were first prepared by transferring a single bacterial colony into 5 mL cation-adjusted Mueller-Hinton broth (CA-MHB) supplemented with kanamycin at 50 μg/mL. The following day, overnight cultures were diluted 1/100 in 25 mL CA-MHB with 50 μg/mL kanamycin and cultured until the optical density reached 0.3 as measured on a spectrometer at 600 nm.
(§5) Filter-sterilised arabinose was then added to a concentration of 0.1% w/v and subsequently cultured until the optical density at 600 nm equalled to 1.
(§6) The cultured medium was then diluted to 1×10^6 CFU mL^−1 in CA-MHB supplemented with 0.1% w/v arabinose and 50 μg/mL kanamycin. […]
(§7) A maximum 8 μl of peptide ligand was then added into the wells of column 1 and diluted two-fold across the plate. […] The optical density at 600 nm was then measured for each of the wells using a PheraStar FSx plate reader. MIC values were determined as the cutoff concentration between visible growth and no growth of the bacteria.

[3] = test system: E. Coli GKCW102 (WT-pore); experiment: MIC assay, E. coli GKCW102; format: cell-based; conditions: Escherichia coli
Method: as §3, §4, §5, §6, §7

E. cloacae (NCTC 13405) = experiment: MIC assay (10 μl), E. cloacae; format: cell-based; conditions: Enterobacter cloacae, NCTC13405
Method: as §1, §2

E. Coli GKCW103 (ΔToIC) = experiment: MIC assay, E. coli GKCW103; format: cell-based; conditions: Escherichia coli
Method: as §3, §4, §5, §6, §7

PBP3 of E. coli [4] = molecular target: T1, PBP3 of E. coli; experiment: Fluorescence polarisation competition binding assay Method 1 (BODIPY labelled penicillin tracer); conditions: competition with Bocillin (BODIPY-penicillin)
Method: Fluorescence polarisation competition was carried out using a BODIPY labelled Penicillin tracer and unlabelled peptides, for competition to an unmodified PBP protein. Polarisation was measured using a PHERAstar FS by BMG Labtech fitted with a FP 485 520 520 optic module.
Fluorescent BODIPY labelled penicillin at 5 mM in DMSO were diluted to 6.25 nM in binding buffer (10 mM HEPES, pH8, 300 mM NaCl, 2% glycerol). Unmodified PBP were diluted to 2 μM in binding buffer. A two-fold dilution series of unmodified peptide was prepared across 12 wells in binding buffer, with the highest final well concentration being 60 μM, and the lowest concentration being 50 nM. 5 μl of the unmodified peptide dilution series or Carbenicillin were added to 12 wells of a 384-Well NBS™ Low Volume Microplate (Fisher Scientific). 10 μl diluted fluorescent BODIPY labelled penicillin (6.25 nM) were then added to the 12 wells containing the unmodified peptide dilutions. […]
Fluorescence polarisation was measured every 5 minutes for a period of one hour at room temperature. […]
Data were analysed in GraphPad software to derive values for the inhibition constant. […]

S. pneumoniae PBP1a = molecular target: T2, S. pneumoniae PBP1a (S. pneumoniae, UniProt Q04707 37-719, limits assumed); experiment: fluorescence polarisation direct binding; fluorescein-labelled peptide, PBP titrated
T2 sequence (looked up): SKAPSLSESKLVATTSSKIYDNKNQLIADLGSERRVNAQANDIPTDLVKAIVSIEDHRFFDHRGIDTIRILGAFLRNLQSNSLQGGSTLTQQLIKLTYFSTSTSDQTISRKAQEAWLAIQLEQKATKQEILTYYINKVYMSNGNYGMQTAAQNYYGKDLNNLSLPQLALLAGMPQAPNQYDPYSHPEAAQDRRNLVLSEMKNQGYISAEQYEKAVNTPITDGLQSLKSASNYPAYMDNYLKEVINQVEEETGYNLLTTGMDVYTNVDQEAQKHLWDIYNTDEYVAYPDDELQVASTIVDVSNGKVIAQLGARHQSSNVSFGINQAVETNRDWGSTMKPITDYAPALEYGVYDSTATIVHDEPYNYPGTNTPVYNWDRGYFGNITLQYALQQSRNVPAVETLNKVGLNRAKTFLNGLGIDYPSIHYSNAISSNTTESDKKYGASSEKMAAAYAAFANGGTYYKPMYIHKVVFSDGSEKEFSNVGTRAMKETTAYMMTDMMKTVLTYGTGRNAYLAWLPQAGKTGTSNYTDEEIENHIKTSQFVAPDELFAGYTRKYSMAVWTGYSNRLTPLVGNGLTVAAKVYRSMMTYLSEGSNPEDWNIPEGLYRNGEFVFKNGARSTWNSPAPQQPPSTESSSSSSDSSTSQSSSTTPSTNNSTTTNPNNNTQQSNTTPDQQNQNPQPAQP

PBP3 of E. coli [5] = molecular target: T3, PBP3 of E. coli (E. coli, UniProt P0AD68 57-577, limits assumed); experiment: as above
T3 construct: also called E. coli PBP3; FtsI
T3 sequence (looked up): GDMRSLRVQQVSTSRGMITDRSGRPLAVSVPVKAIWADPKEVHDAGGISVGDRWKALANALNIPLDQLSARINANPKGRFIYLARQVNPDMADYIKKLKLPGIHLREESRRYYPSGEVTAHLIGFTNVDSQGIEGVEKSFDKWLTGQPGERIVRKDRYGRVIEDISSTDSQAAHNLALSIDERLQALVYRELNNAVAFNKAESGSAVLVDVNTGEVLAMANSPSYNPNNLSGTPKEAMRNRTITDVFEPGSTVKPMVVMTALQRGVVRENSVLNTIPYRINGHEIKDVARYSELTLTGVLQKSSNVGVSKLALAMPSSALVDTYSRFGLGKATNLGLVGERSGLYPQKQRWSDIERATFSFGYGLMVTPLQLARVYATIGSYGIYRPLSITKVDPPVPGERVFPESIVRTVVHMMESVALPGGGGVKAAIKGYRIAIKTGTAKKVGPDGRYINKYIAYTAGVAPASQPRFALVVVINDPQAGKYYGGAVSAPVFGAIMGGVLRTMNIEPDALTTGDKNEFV

PBP3 of P. aeruginosa = molecular target: T4, PBP3 of P. aeruginosa (P. aeruginosa, UniProt G3XD46 50-579, limits assumed); experiment: as above
T4 construct: also called P. aeruginosa PBP3
T4 sequence (G3XD46 50-579 limits assumed): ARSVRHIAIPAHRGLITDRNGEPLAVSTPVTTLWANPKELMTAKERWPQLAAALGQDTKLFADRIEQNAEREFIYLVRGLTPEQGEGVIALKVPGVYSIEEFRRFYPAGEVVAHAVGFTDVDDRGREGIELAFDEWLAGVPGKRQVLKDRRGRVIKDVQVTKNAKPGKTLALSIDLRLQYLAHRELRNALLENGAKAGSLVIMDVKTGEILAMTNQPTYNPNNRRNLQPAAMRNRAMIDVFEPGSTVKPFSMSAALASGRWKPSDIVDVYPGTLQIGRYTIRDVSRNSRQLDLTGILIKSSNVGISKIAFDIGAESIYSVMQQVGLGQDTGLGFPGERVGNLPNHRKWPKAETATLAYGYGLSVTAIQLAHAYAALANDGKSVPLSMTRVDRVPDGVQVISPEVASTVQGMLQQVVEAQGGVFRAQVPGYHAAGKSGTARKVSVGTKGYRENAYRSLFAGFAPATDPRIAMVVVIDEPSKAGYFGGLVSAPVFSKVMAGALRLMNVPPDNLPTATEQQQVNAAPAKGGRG

T1 sequence (P0AD68 1-577): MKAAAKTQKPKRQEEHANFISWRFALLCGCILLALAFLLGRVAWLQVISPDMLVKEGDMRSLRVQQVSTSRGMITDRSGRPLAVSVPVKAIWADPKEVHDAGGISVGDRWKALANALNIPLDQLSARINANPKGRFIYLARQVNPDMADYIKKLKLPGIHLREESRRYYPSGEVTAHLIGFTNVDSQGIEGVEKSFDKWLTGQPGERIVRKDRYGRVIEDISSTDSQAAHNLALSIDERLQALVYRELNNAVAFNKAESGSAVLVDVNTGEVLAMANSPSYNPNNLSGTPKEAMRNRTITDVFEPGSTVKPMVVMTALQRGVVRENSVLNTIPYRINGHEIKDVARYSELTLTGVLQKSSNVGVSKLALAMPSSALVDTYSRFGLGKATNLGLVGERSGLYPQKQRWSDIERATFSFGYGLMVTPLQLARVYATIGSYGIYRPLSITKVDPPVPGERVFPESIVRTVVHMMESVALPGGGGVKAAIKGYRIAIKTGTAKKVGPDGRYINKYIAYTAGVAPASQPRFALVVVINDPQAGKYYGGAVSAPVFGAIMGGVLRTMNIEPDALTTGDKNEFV

Molecule: Cc1cc(C)n2c1C=C1C=CC(CCC(=O)Nc3ccc(OCC(=O)N[C@@H]4C(=O)N5[C@@H]4SC(C)(C)[C@@H]5C(=O)O)cc3)=[N+]1[B-]2(F)F [Bocillin]
- Kd (PBP3 of E. coli [1]): 440 nM

Molecule: CC1(C)S[C@@H]2[C@H](NC(=O)C(C(=O)O)c3ccccc3)C(=O)N2[C@H]1C(=O)O (stereo partly drawn) [Carbenicillin, reference compound]
- MIC (E. coli (ATCC 25922)): 16 µg/mL (≈ 42.3 µM)
- MIC [2]: 16 µg/mL (≈ 42.3 µM)
- MIC (E. Coli GKCW101 (WT)): 14 µg/mL (≈ 37 µM)
- MIC [3]: 0.8 µg/mL (≈ 2.11 µM)
- MIC (E. cloacae (NCTC 13405)): 256 µg/mL (≈ 677 µM)
- MIC (E. Coli GKCW103 (ΔToIC)): 2.3 µg/mL (≈ 6.08 µM)
- Ki (PBP3 of E. coli [4]): 520 nM

Molecule: ACHDWDYRHLCYWRCA[Sar][Sar][Sar][Sar][Sar][Sar]K-fluorescein (linker 2-11-15 via TATA, Bicyclic peptide) [BCY9383 with fluorescein appended to the C-terminus with a Sar6-Lysine linker]
- Kd (S. pneumoniae PBP1a): 400 nM

Molecule: ACPYTSCPPHTMCA[Sar][Sar][Sar][Sar][Sar][Sar]K-fluorescein (linker 2-7-13 via TATA, Bicyclic peptide) [BCY9378 with fluorescein appended to the C-terminus with a Sar6-Lysine linker]
- Kd (S. pneumoniae PBP1a): 80 nM

B1: BCY12130 with fluorescein appended to the C-terminus with a Sar6-Lysine linker (peptide)
peptide: ACSFPKCPWVEGCA
modifications: Ci, Cii and Ciii cyclised with TATA scaffold; fluorescein appended to the C-terminus with a Sar6-Lysine linker
notes: Bicyclic peptide
- Kd (PBP3 of E. coli [5]): 2000 nM
- binding result (PBP3 of P. aeruginosa): no binding
